Test results from article PMC12009420, “Dynamically chiral phosphonic acid-type metallo-β-lactamase inhibitors” (Communications Chemistry, 2025).
Where two headings read alike, the source gives them in different places.

How the values were obtained:
VIM-2 = VIM-2 (Escherichia coli, UniProt Q5U7L7); experiment: Enzymatic metallo-β-lactamase assay on purified VIM-2; assay type: biochemical; conditions: for Ki: approximated from Dixon plots (1/v vs [I]) at one constant substrate concentration, ± SE, read-out: Estimated inhibition constant Ki VIM-2; for logIC50 VIM-2: log of IC50, ± SEM of logIC50; for IC50: purified enzyme 1 nM, nitrocefin 15 μM, pH 7.2, 25 °C
Description: (§1) A few inhibitors were tested up to 1600 μM to ensure nearly complete inhibition. Solutions of 100 μL consisting of buffer, purified enzyme (1 nM for GIM-1 and VIM-2, 5 nM for NDM-1), inhibitor and reporter substrate nitrocefin (15 μM for VIM-2, 2 μM for GIM-1) or imipenem (30 μM for NDM-1) were incubated in triplicates on a 96 well plate for 5 min at 25 °C. Buffer solution consisted of 50 mM HEPES pH 7.2, 50 μM ZnSO4 and 0.4 mg/ml bovine serum albumine. Inhibitors were dissolved in DMSO but diluted to assure <2% DMSO in measured assay. Absorbance was measured at 482 nm (nitrocefin) and 300 nm (imipenem) on a SpectraMax M4 spectrophotometer. The initial velocity at each inhibitor concentration was analyzed in GraphPad Prism v9.3.1 and fitted to dose-response curves by non-linear regression (log [inhibitor] vs response) used to calculate IC50 (Supplementary Tables S2–5).

GIM-1 [1] = target: T1, GIM-1 (Pseudomonas aeruginosa, UniProt Q704V1); experiment: Enzymatic metallo-β-lactamase assay on purified GIM-1; assay type: biochemical; conditions: for logIC50 GIM-1: log of IC50, ± SEM of logIC50; for IC50: purified enzyme 1 nM, nitrocefin 2 μM, pH 7.2, 25 °C
Description: as §1

NDM-1 = NDM-1 (Klebsiella pneumoniae, UniProt C7C422); experiment: Enzymatic metallo-β-lactamase assay on purified NDM-1; assay type: biochemical; conditions: for Ki: approximated from Dixon plots (1/v vs [I]) at one constant substrate concentration, ± SE, read-out: Estimated inhibition constant Ki NDM-1; for logIC50 NDM-1: log of IC50, ± SEM of logIC50; for IC50: purified enzyme 5 nM, imipenem 30 μM, pH 7.2, 25 °C
Description: as §1

MTT cytotoxicity assay = assay type: cell-based; conditions: human, HepG2 cells
Description: Cytotoxic activity of the compounds was measured through the MTT colorimetric assay as previously described[60] using the Colorimetric (MTT) Kit for Cell Survival and Proliferation (Merck/Millipore; Darmstadt, Germany). HepG2 cells (human hepatocellular carcinoma cell line) were kept in penicillin/streptomycin-free medium overnight and then they were treated with the compounds for 24 h. Subsequently, the MTT reagent was added to the cells and after 3 h of incubation, MTT-derived formazan crystals were solubilized in acidified isopropanol (0.1 mL isopropanol with 0.04 N HCl). Absorbance was measured with multiscan spectrophotometer (Thermo Fisher Scientific) at 530 nm test and 630 nm reference wavelengths. Cell viability was expressed as the percentage of viable, untreated cells. CC50 values were determined with GraphPad Prism software (v9.3.1) and adjusted to dose-response curves by non-linear regression (Supplementary Table S7).
8. Cytotoxocity against HepG2 cells
Table S7. CC50 values and viability curves of metallo-β-lactamase inhibitors tested on HepG2 […]
cells. […]
range. Data are shown as % via bility values ± SEM (n=4). Calculations were done using […]
Inhibitors CC50 (μM) HepG2 […]

[2] = Long term stability in buffer with 2.5% DMSO (LC-MS); assay type: physicochemical; conditions: 20 mM KPO4, 0.1 mM ZnCl2, pH 7.0 + 2.5% DMSO; LC-MS 254 nm
Text: Reagents, reactants, solvents and drying agents for synthesis, work-up and purification were purchased from commercial vendors (Sigma-Aldrich, VWR, Merck, Fluorochem, Thermo Fisher Scientific, Solveco), and if not stated otherwise they were used without further purification. Reactions and long term stability of the final compounds in buffer were monitored using LC-MS (Agilent 1260 Infinity II) equipped with an ESI-Q detector (Infinitylab LC-MSD) using Agilent InfinityLab Poroshell 120 C18 columns (2.7 μm, ϕ 2.1 mm L 50 mm or 2.7 μm, ϕ 4.6 mm L 50 mm). The intermediates were purified using VWR silica gel 60 (40–63 μm) with a Biotage Isolera One flash column chromatography instrument. The final products were purified with preparative RP-HPLC (VWR LaPrep P110) with single wavelength detection (254 nm), using a Kinetex C8 column (5 μm, 100 Å, ϕ 21.2 mm L 250 mm) and gradients of CH3CN/H2O + 0.1% formic acid as the mobile phase at a 10 mL/min flow rate. Analytical HPLC data were acquired on a VWR LaChrome ELITE system using an ACE3 C8 (3 μm, 300 Å, ϕ 3.0 mm L 100 mm) or a Kinetex C18 columns (5 μm, 100 Å, ϕ 3.0 mm L 150 mm). NMR spectra were recorded on a Varian Agilent MR400-DD2 400 MHz spectrometer equipped with a OneNMR probe, Bruker Avance Neo 500 MHz spectrometer equipped with a cryogenic TXO probe, or a Bruker Avance Neo 600 MHz spectrometer equipped with a TCI cryogenic probe. The chemical shifts are reported using the residual solvent signal as an indirect reference to TMS.
4. Long term stability of the final compounds in buffer with 2.5% DMSO
The long term stability of the final compounds in buffer (20 mM KPO4, 0.1 mM ZnCl2, pH 7.0 + 2.5% DMSO) were monitored using LC-MS (Agilent 1260 Infinity II) equipped with an ESI-Q detector (Infinitylab LC-MSD) using Agilent InfinityLab Poroshell 120 C18 column (2.7 μm, ϕ 4.6 mm L 50 mm) at 254 nm with a 7 min long gradient method (5% to 95% CH3CN) of CH3CN/H2O + 0.1% formic acid as the mobile phase at a 1.0 mL/min flow rate. The samples were measured right after dissolving them in buffer, and after 1 month of keeping the same samples dissolved in the same buffer. The main peaks (> 95%) and impurities with > 1% are […]
Figure S14. Compound 5a right after dissolving it in buffer.
Figure S15. Compound 5a kept in buffer for 1 month. […]

GIM-1 [3] = target: T1, GIM-1; experiment: Enzymatic metallo-β-lactamase assay on purified GIM-1; assay type: biochemical; conditions: approximated from Dixon plots (1/v vs [I]) at one constant substrate concentration; ± SE; read-out: Estimated inhibition constant Ki GIM-1
15N-labelled VIM-2 = target: T2, 15N-labelled VIM-2 (Escherichia coli, UniProt Q5U7L7); experiment: 1H,15N-HSQC titration of VIM-2; assay type: binding; conditions: 10 equivalents of compound, 600 MHz, pH 7.0, 25 °C
T2 construct: made in house
Description: The ^1H, ^15N-HSQC spectra for the titration experiments were recorded on a Bruker Avance Neo 600 MHz spectrometer equipped with a 5 mm TCI cryogenic probe at 25 °C. The U-[^15N]-labeled VIM-2 was prepared in a buffer of 20 mM KPO4, 0.1 mM ZnCl2, at pH 7.0, containing 85% H2O/15% D2O at a concentration of 0.25 mM. The U-[^15N]-labeled NDM-1 was used in a buffer of 20 mM HEPES, 0.1 mM ZnCl2, at pH 7.0, containing 85% H2O/15% D2O at a concentration of 0.25 mM. The ligands 5d, 5g, 5i, 5j (for VIM-2 titrations) and 5 f (for NDM-1 titration) were dissolved in the same buffer as the corresponding enzymes. Spectra were recorded using solvent suppression, 1024 points in f1, 16 transients, 512 increments in f2 and a relaxation delay of 0.2 s. The titrations were carried out with 0, 0.25, 0.50, 1.00, 1.50, 2.25, 3.00, 4.00, 5.00, 7.00, 10.0 equivalents of the inhibitors.
Figure S47. Superimposition of the 1H,15N-HSQC spectrum (600 MHz, pH 7.0, 25 °C) of
VIM-2 in the absence (blue) and in the presence (green) of 10 molar equivalent of compound
5j. Buffer: 20 mM KPO4, 0.1 mM ZnCl2, with 15% D2O.
Chemical shift perturbation values (CSP, ΔδNH) were calculated as the weighted average of
the chemical shift changes in f1 (ΔδN) and f2 (ΔδH) dimensions using the following equation 8:
∆δ = √∆δ 2 + ( N ); R = 6.5
Figure S48. Linear regression of the chemical shift perturbations of compound 5g (IC50 =
12 μM) as a function of the chemical shift perturbations of compounds 5c (yellow circle), 5d
(grey square), 5i (green triangle) and 5j (blue circle) for VIM-2. The data of the studied […]

[4] = HepG2, MTT, read-out: CC50 (in viability curve)
[5] = MTT, 0.0025 mM - 1mM concentration range, read-out: Cytotoxicity CC50 HepG2

Sequence of NDM-1 (C7C422 29-270, looked up, species assumed): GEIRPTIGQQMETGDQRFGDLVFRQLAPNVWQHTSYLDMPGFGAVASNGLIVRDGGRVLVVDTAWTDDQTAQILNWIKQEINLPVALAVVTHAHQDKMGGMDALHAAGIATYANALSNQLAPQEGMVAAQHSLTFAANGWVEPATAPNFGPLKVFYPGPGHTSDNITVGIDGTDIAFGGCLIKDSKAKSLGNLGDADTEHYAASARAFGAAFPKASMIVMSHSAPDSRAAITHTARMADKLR
T1 sequence (Q704V1 entry or part of it): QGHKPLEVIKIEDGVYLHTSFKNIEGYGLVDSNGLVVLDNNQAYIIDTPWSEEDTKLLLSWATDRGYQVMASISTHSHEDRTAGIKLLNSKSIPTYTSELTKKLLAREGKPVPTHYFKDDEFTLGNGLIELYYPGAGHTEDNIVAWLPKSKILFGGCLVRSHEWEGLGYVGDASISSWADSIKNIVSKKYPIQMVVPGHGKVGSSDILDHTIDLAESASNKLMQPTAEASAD

| SMILES | Ki (VIM-2) [µM] | logIC50 VIM-2 (VIM-2) [μM] | IC50 (VIM-2) [µM] | logIC50 GIM-1 (GIM-1 [1]) [μM] | IC50 (GIM-1 [1]) [µM] | Ki (NDM-1) [µM] | logIC50 NDM-1 (NDM-1) | IC50 (NDM-1) [µM] | main peak Area% kept in buffer for 1 month [2] [%] | main peak Area% right after dissolving in buffer [2] [%] | Ki (GIM-1 [3]) [µM] | CC50 at 24 h (MTT cytotoxicity assay; [4]) [µM] | CC50 at 24 h (MTT cytotoxicity assay; [5]) [µM] | Mean chemical shift perturbation, VIM-2 (15N-labelled VIM-2) [ppm] |
| --- | --- | --- | --- | --- | --- | --- | --- | --- | --- | --- | --- | --- | --- | --- |
| O=C(Cc1cc2ccccc2s1)NC(c1ccccc1O)P(=O)(O)O (centres unmarked) [5k] | 119 ± 13 | 1.71 ± 0.07 | 51 | 1.90 ± 0.08 | 80 | 262 ± 41 | 1.81 ± 0.11 log10(IC50/μM) | 65 | 98.27 | 98.10 | 189 ± 76 | 5600 | 5610 | – |
| O=C(NC(c1ccccc1O)P(=O)(O)O)c1cc2ccccc2s1 (centres unmarked) [5c] | 71 ± 6 | 2.01 ± 0.05 | 103 | 2.01 ± 0.09 | 101 | – | – | – | 97.59 | 97.20 | 102 ± 10 | 2900 | 2930 | 0.05 |
| O=C(NC(c1ccccc1O)P(=O)(O)O)c1csc2ccccc12 (centres unmarked) [5d] | 31 ± 5 | 1.33 ± 0.03 | 21 | 1.01 ± 0.19 | 10 | – | – | – | 97.15 | 97.92 | 64 ± 13 | 4400 | 4440 | 0.04 |
| O=C(Cc1ccsc1)NC(c1ccccc1O)P(=O)(O)O (centres unmarked) [5j] | 88 ± 16 | 1.57 ± 0.03 | 37 | 2.01 ± 0.06 | 103 | 196 ± 13 | 2.37 ± 0.07 log10(IC50/μM) | 232 | 96.88 | 95.28 | – | 4000 | 3970 | 0.04 |

Now from value to compound, other results behind:

| Ki (VIM-2) [µM] | logIC50 VIM-2 (VIM-2) [μM] | IC50 (VIM-2) [µM] | logIC50 GIM-1 (GIM-1 [1]) [μM] | IC50 (GIM-1 [1]) [µM] | Ki (NDM-1) [µM] | logIC50 NDM-1 (NDM-1) | IC50 (NDM-1) [µM] | main peak Area% kept in buffer for 1 month [2] [%] | main peak Area% right after dissolving in buffer [2] [%] | Ki (GIM-1 [3]) [µM] | SMILES | CC50 at 24 h (MTT cytotoxicity assay; [4]) [µM] | CC50 at 24 h (MTT cytotoxicity assay; [5]) [µM] | Mean chemical shift perturbation, VIM-2 (15N-labelled VIM-2) [ppm] |
| --- | --- | --- | --- | --- | --- | --- | --- | --- | --- | --- | --- | --- | --- | --- |
| 74 ± 7 | 1.87 ± 0.35 | 74 | 2.08 ± 0.53 | 121 | – | – | – | – | 96.96 | 213 ± 22 | O=C(Cc1ccccc1)NC(c1ccccc1O)P(=O)(O)O (centres unmarked) [5m] | > 1000 | > 1000 | – |
| 85 ± 12 | 1.74 ± 0.05 | 55 | 1.54 ± 0.13 | 35 | 363 ± 86 | 1.93 ± 0.09 log10(IC50/μM) | 85 | 95.39 | 95.97 | 118 ± 20 | O=C(NC(c1ccccc1O)P(=O)(O)O)c1ccccc1 (centres unmarked) [5h] | > 1000 | > 1000 | – |
| 39 ± 5 | 1.42 ± 0.18 | 26 | 1.71 ± 0.07 | 51 | 411 ± 160 | 1.83 ± 0.05 log10(IC50/μM) | 67 | 98.10 | 98.54 | 193 ± 41 | O=C(Cc1csc2ccccc12)NC(c1ccccc1O)P(=O)(O)O (centres unmarked) [5l] | 3900 | 3910 | – |
| 112 ± 11 | 2.10 ± 0.08 | 124 | 2.37 ± 0.21 | 236 | 451 ± 57 | 1.99 ± 0.13 log10(IC50/μM) | 97 | 95.03 | 95.46 | 162 ± 21 | O=C(NC(c1ccccc1O)P(=O)(O)O)c1ccsc1 (centres unmarked) [5b] | 1800 | 1830 | – |
| 36 ± 6 | 1.85 ± 0.07 | 71 | 1.30 ± 0.08 | 20 | 617 ± 95 | 2.34 ± 0.09 log10(IC50/μM) | 217 | 95.67 | 95.87 | 144 ± 36 | O=C(NC(c1ccccc1O)P(=O)(O)O)c1cccs1 (centres unmarked) [5a] | 4500 | 4550 | – |
| 72 ± 7 | 1.90 ± 0.11 | 79 | 1.73 ± 0.12 | 53 | – | – | – | 98.87 | 98.53 | 76 ± 5 | O=C(NC(c1ccccc1O)P(=O)(O)O)c1cc2c(s1)CCCC2 (centres unmarked) [5e] | > 1000 | > 1000 | – |
